Measured values taken from patent US11219580B2, “Oral composition” (Andalay Technologies Limited, priority 2016, dated 2022).
Read-outs that look alike come from different tables or passages of the source.

Assays:
rat = settings: cited from earlier work
[1] = Dissolution Test 2: release of active ingredients from sports-gel style mouthwash (protocol 1B) under simulated mastication, QTOF-UHPLC; type: physicochemical; settings: for release profile from sports-gel style mouthwash: 10 g mouthwash of protocol 1B in 100 mL stirred water at 37° C., samples 10-600 s, FIGS. 7-11; for relative release profile, order of release: protocol 1B mouthwash, peak-normalised plots, FIG. 12
Procedure: A sports-gel style mouthwash was prepared according to protocol 1B described above. In order to measure the release of the active ingredients from the mouthwash, it was necessary to recreate the mastication conditions of the mouth. The following protocol was employed for this purpose: • i. Whilst stirring with a 3.5 cm magnetic stirrer set at the “7” rotation setting, heat 100 mL of water to 37° C. in a beaker. • ii. Aspirate 1 mL of solution using a pipette to obtain a standard sample. • iii. Add 10 g of the sports-gel style mouthwash prepared according to protocol 1B to the heated water. • Aspirate 1 mL of the resultant solution at time intervals of t=10, 20, 40, 60, 90, 120, 150, 180, 210, 240, 270, 300, 360 and 600 seconds, ensuring that the samples are taken from the outermost rim of the beaker.
Prior to mass spectrometry analysis, the samples and standards obtained were diluted 1 part in 10 in acetonitrile (ACN). All concentrations given below for the calibration are of these diluted solutions.
All samples and calibration standards were injected in the following order: triplicate injections of full calibration standards from low to high concentration, triplicate injection of acetonitrile blank, triplicate injection of sample series B in timeline sequence (each with a single blank in between), single injection of full calibration standards from low to high concentration, triplicate injection of blank acetonitrile, triplicate injection of sample series B in timeline sequence (each with a single blank in between). The reason for the second, shorter, series of calibration standards was to determine if there was any significant decrease in sensitivity (indicated by decrease in peak area) during the batch.
The QTOF-UHPLC analysis was conducted using a MaXis HD quadrupole electrospray time-of-flight (ESI-QTOF) mass spectrometer (Bruker Daltonik GmbH, Bremen, Germany) operated in ESI positive-ion MS mode. The QTOF was coupled to an Ultimate 3000 UHPLC (Thermo Fisher Scientific, California, USA). The capillary voltage was set to 4500 V, nebulising gas at 2 bar, drying gas at 10 L/min at 200° C. The TOF scan range was from 50-750 mass-to-charge ratio (m/z). For effective transmission of ions the ion energy was set to 1.0 eV with the collision energy for TOF MS acquisition at 2.0 eV. Liquid chromatography was performed using a Kinetex […], 2.1×100 mm HILIC column (Phenomenex) with a flow rate of 0.4 mL/min at 30° C. and an injection volume of 10 μL. Mobile phases A and B consisted of 50:50 ACN:H2O with 0.2% v/v formic acid and 10 mM ammonium formate, and 95:5 ACN:H2O with 0.2% v/v formic acid and 10 mM ammonium formate, respectively. Gradient elution was carried out with 100% mobile phase B until 2 min followed by a linear gradient to 0% B at 12 mins, keeping 0% B up until 15 mins, thereafter returned to 100% B until in 20 mins total run time. The MS instrument was calibrated using a range of sodium formate clusters introduced by 10 μL loop-injection prior to the chromatographic run. The mass calibrant solution consisted of 3 parts of 1 M NaOH to 97 parts of 50:50 water:isopropanol with 0.2% formic acid. The observed mass and isotope pattern perfectly matched the corresponding theoretical values as calculated from the expected elemental formula. Most of the target compounds were detected as [M+H]^+ and [M+Na]^+ ions. Data processing was performed using the Data Analysis software version 4.3 (Bruker Daltonik GmbH, Bremen, Germany). Quantification was carried out using the peak area in the extracted ion chromatogram (EIC) of the sum of the protonated and sodiated ion of the target compound.
Using the mass spectrometry data obtained, it is possible evaluate the release profiles of the active ingredients present in the sports-gel style mouthwash under simulated mastication conditions.

| Compound | LD50 rat (rat; in vivo) | release profile from sports-gel style mouthwash [1] | relative release profile, order of release [1] | LD50 rat (rat) |
| --- | --- | --- | --- | --- |
| OC[C@@H](O)[C@H](O)[C@@H](O)CO [Xylitol] | 16,500 mg/kg | released quickly | follow the release of the surfactant | – |
| Cc1ccc(C(C)C)c(O)c1 [Thymol] | – | reaches its maximum concentration at a later stage of mastication | – | – |
| O=[N+]([O-])[O-].[K+] [Potassium nitrate] | – | – | – | 3,750 mg/kg |
| O [Water] | – | – | – | 90,000 mg/kg |
| CC1CCC(C(C)C)C(O)C1 (centres unmarked) [Menthol] | 3,300 mg/kg | – | – | – |
| CC12CCC(CC1)C(C)(C)O2 [Eucalyptol] | – | reaches its maximum concentration significantly later than, for example, the glycerol or sorbitan monolaurate | follow the release of the surfactant | – |
| OCC(O)CO [Glycerine, glycerol] | 12,600 mg/kg | immediately releases into the surrounding solution and reaches its effective concentration within seconds | released immediately upon commencing mastication | – |
| Sorbitan monolaurate | – | fast release | the next active ingredient to reach an effective concentration | – |
